Where two headings read alike, the source gives them in different places.
Tests used:
[1] = target: BTK enzyme (recombinant full-length BTK, hBTK) (Homo sapiens (Human), UniProt Q06187); test: BTK enzymatic activity LANCE TR-FRET assay; type: biochemical; details: 50 pM hBTK, 25 μM ATP, 2 μM biotin-A5-peptide; compound range 1 μM to 0.017 nM; read-out: BTK binding IC50
[2] = tested on: adenosine uptake into HeLa cells; test: [3H]Adenosine uptake assay in HeLa cells; type: cell-based; details: [3H]adenosine accumulation in HeLa cells, compound range 10 μM to 0.032 nM, read-out: ADU inhibition IC50
Summary of the method: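 HeLa cells in HBSS + 5% FBS were preincubated 30 min at ambient temperature with compound (ten-point 1:3 series, 10 µM–[…] final), then given [3H]adenosine (added as a 500 nM solution) for 60 min. Cell-associated label was read by scintillating-plate proximity counting; IC50 from 4-parameter fit of cps versus log concentration.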

Chain of BTK enzyme (recombinant full-length BTK, hBTK) (Q06187 whole entry): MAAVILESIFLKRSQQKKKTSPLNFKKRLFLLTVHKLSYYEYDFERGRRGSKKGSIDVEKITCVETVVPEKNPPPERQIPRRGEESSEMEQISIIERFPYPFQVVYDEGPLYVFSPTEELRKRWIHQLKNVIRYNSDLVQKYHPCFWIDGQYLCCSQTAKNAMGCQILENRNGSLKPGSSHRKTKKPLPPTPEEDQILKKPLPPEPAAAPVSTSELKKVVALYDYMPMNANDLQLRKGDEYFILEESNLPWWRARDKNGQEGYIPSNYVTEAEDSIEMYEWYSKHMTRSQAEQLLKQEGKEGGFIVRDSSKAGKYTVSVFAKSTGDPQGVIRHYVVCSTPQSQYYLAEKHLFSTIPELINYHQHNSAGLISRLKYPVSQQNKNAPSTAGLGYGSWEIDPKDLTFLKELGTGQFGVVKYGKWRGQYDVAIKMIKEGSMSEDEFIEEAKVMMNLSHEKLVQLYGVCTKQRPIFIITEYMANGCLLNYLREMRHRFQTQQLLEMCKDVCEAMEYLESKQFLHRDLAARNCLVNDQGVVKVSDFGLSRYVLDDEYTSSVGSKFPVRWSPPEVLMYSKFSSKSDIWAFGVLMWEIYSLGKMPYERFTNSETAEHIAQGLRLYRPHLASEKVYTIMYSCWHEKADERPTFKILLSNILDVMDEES

| Structure (SMILES) | IC50 [1] | IC50 [2] | IC50 ([2]; Homo sapiens, HeLa) |
| --- | --- | --- | --- |
| CC(O)(c1ccc(-c2nc([C@@H]3CC[C@H]4CCC(=O)N4C3)n3ccnc(N)c23)cc1)c1cccc(C2CC2(F)F)c1 (stereo partly drawn) [Example 165, (6R,8aS)-6-[8-amino-1-(4-{1-[3-(2,2-difluorocyclopropyl)phenyl]-1-hydroxyethyl}phenyl)imidazo[1,5-a]pyrazin-3-yl]hexahydroindolizin-3(2H)-one] | 28.9 nM | 1090 nM | – |
| CCOc1cc(C(C)(O)c2cccc(C)c2)ccc1-c1nc([C@@H]2CC[C@H]3CCC(=O)N3C2)n2ccnc(N)c12 (stereo partly drawn) [Example 166, (6R,8aS)-6-(8-amino-1-{2-ethoxy-4-[1-hydroxy-1-(3-methylphenyl)ethyl]phenyl}imidazo[1,5-a]pyrazin-3-yl)hexahydroindolizin-3(2H)-one] | 2 nM | 10000 nM | – |
| CCOc1cc(C(C)(O)c2cccc(C(F)(F)F)c2)ccc1-c1nc([C@@H]2CC[C@H]3CCC(=O)N3C2)n2ccnc(N)c12 (stereo partly drawn) [Example 167, (6R,8aS)-6-[8-amino-1-(2-ethoxy-4-{1-hydroxy-1-[3-(trifluoromethyl)phenyl]ethyl}phenyl)imidazo [1,5-a]pyrazin-3-yl]hexahydroindolizin-3(2H)-one] | 20.6 nM | 2410 nM | – |
| CCOc1cc(C(C)(O)c2cccc(C)c2)ccc1-c1nc([C@@H]2CC[C@H]3CCC(=O)N3C2)n2ccnc(N)c12 (stereo partly drawn) [Example 168, (6R,8aS)-6-(8-amino-1-{2-ethoxy-4-[1-hydroxy-1-(3-methylphenyl)ethyl]phenyl}imidazo[1,5-a]pyrazin-3-yl)hexahydroindolizin-3(2H)-one] | 60.3 nM | 3650 nM | – |
| C[C@@](O)(c1ccc(-c2nc([C@H]3CN4C(=O)CC[C@@H]4CO3)n3ccnc(N)c23)cc1)c1cccc(C(F)(F)F)c1 [Example 169, (3R,8aR)-3-[8-amino-1-(4-{(1R)-1-hydroxy-1-[3-(trifluoromethyl)phenyl]ethyl}phenyl)imidazo[1,5-a]pyrazin-3-yl]hexahydro-6H-pyrrolo[2,1-c][1,4]oxazin-6-one] | 7.2 nM | – | 4530 nM |
| C[C@@](O)(c1ccc(-c2nc([C@@H]3CC[C@H]4N(C3)C(=O)CCC4(F)F)n3ccnc(N)c23)cc1)c1cccc(C(F)(F)F)c1 [Example 170, (7R,9aR)-7-[8-amino-1-(4-{(1R)-1-hydroxy-1-[3-(trifluoromethyl)phenyl]ethyl}phenyl)imidazo [1,5-a]pyrazin-3-yl]-1,1-difluorooctahydro-4H-quinolizin-4-one] | 556 nM | – | 7110 nM |
| C[C@@](O)(c1ccc(-c2nc([C@H]3CC[C@@H]4N(C3)C(=O)CCC4(F)F)n3ccnc(N)c23)cc1)c1cccc(C(F)(F)F)c1 [Example 171, (7S,9aS)-7-[8-amino-1-(4-{(1R)-1-hydroxy-1-[3-(trifluoromethyl)phenyl]ethyl}phenyl)imidazo [1,5-a]pyrazin-3-yl]-1,1-difluorooctahydro-4H-quinolizin-4-one] | 89 nM | – | 7960 nM |
| C[C@@](O)(c1ccc(-c2nc([C@@H]3CC[C@@H]4[C@@H](C(F)(F)F)CC(=O)N4C3)n3ccnc(N)c23)cc1)c1cccc(C(F)(F)F)c1 [Example 172, (1S,6R,8aR)-6-[8-amino-1-(4-{(1R)-1-hydroxy-1-[3-(trifluoromethyl)phenyl]ethyl}phenyl)imidazo [1,5-a]pyrazin-3-yl]-1-(trifluoromethyl) hexahydroindolizin-3(2H)-one] | 258 nM | – | 5320 nM |
| C[C@@](O)(c1ccc(-c2nc([C@@H]3CC[C@H]4CCC(=O)N4C3)n3c(C(F)(F)F)cnc(N)c23)cc1)c1cccc(C(F)(F)F)c1 [Example 173, (6R,8aS)-6-[8-amino-1-(4-{(1R)-1-hydroxy-1-[3-(trifluoromethyl)phenyl]ethyl}phenyl)-5-(trifluoromethyl)imidazo [1,5-a]pyrazin-3-yl]hexahydroindolizin-3(2H)-one] | 22.2 nM | – | 5110 nM |
| C[C@@](O)(c1ccc(-c2nc([C@H]3CC[C@@H]4COCC(=O)N4C3)n3c(Cl)cnc(N)c23)cc1)c1cccc(C(F)(F)F)c1 [Example 174, (7S,9aR)-7-[8-amino-5-chloro-1-(4-{(1R)-1-hydroxy-1-[3-(trifluoromethyl)phenyl]ethyl}phenyl)imidazo [1,5-a]pyrazin-3-yl]hexahydropyrido[2,1-c][1,4]oxazin-4(3H)-one] | 85.7 nM | – | 1160 nM |
| C[C@@](O)(c1ccc(-c2nc([C@@H]3CC[C@H]4COCC(=O)N4C3)n3c(Cl)cnc(N)c23)cc1)c1cccc(C(F)(F)F)c1 [Example 175, (7R,9aS)-7-(8-amino-5-chloro-1-(4-{(1R)-1-hydroxy-1-[3-(trifluoromethyl)phenyl]ethyl}phenyl)imidazo [1,5-a]pyrazin-3-yl]hexahydropyrido[2,1-c][1,4]oxazin-4(3H)-one] | 1.5 nM | – | 1380 nM |
| C[C@@](O)(c1ccc(-c2nc([C@H]3CN4C(=O)COC[C@@H]4CO3)n3ccnc(N)c23)cc1)c1cccc(C(F)(F)F)c1 [Example 176, (7R,9aR)-7-[8-amino-1-(4-{(1R)-1-hydroxy-1-[3-(trifluoromethyl)phenyl]ethyl}phenyl)imidazo [1,5-a]pyrazin-3-yl]tetrahydro-1H-[1,4]oxazino[3,4-c][1,4]oxazin-4(3H)-one] | 7.5 nM | – | 4270 nM |
| CC1(C)CC(=O)N2C[C@H](c3nc(-c4ccc([C@@](C)(O)c5cccc(C(F)F)c5)cc4)c4c(N)nccn34)CC[C@H]21 [Example 177, (6R,8aS)-6-[8-amino-1-(4-{(1R)-1-[3-(difluoromethyl)phenyl]-1-hydroxyethyl}phenyl)imidazo[1,5-a]pyrazin-3-yl]-1,1-dimethylhexahydroindolizin-3(2H)-one] | 0.1 nM | – | 1830 nM |
| C[C@@](O)(c1ccc(-c2nc([C@@H]3CC[C@H]4C(C(F)(F)F)CC(=O)N4C3)n3ccnc(N)c23)cc1)c1cccc(C(F)(F)F)c1 (stereo partly drawn) [Example 179, (1R,6R,8aS)-6-[8-amino-1-(4-{(1R)-1-hydroxy-1-[3-(trifluoromethyl)phenyl]ethyl}phenyl)imidazo [1,5-a]pyrazin-3-yl]-1-(trifluoromethyl) hexahydroindolizin-3(2H)-one] | 3.5 nM | – | 3300 nM |
| C[C@@](O)(c1ccc(-c2nc([C@@H]3CC[C@H]4C(C(F)(F)F)CC(=O)N4C3)n3ccnc(N)c23)cc1)c1cccc(C(F)(F)F)c1 (stereo partly drawn) [Example 180, (1R,6R,8aS)-6-[8-amino-1-(4-{(1R)-1-hydroxy-1-[3-(trifluoromethyl)phenyl]ethyl}phenyl)imidazo [1,5-a]pyrazin-3-yl]-1-(trifluoromethyl) hexahydroindolizin-3(2H)-one] | 4.2 nM | 2460 nM | – |
| CC1(C)C[C@@H]2CC[C@@H](c3nc(-c4ccc([C@@](C)(O)c5cccc(C(F)F)c5)cc4)c4c(N)nccn34)CN2C1=O [Example 181, (6R,8aS)-6-[8-amino-1-(4-{(1R)-1-[3-(difluoromethyl)phenyl]-1-hydroxyethyl}phenyl)imidazo[1,5-a]pyrazin-3-yl]-2,2-dimethylhexahydroindolizin-3(2H)-one] | 0.2 nM | – | 3620 nM |
| C[C@@](O)(c1ccc(-c2nc([C@@H]3CC[C@H]4C(C(F)(F)F)CC(=O)N4C3)n3ccnc(N)c23)cc1)c1cccc(C(F)F)c1 (stereo partly drawn) [Example 182, (1R,6R,8aS)-6-[8-amino-1-(4-{(1R)-1-[3-(difluoromethyl)phenyl]-1-hydroxyethyl}phenyl)imidazo[1,5-a]pyrazin-3-yl]-1-(trifluoromethyl) hexahydroindolizin-3(2H)-one] | 0.43 nM | – | 2800 nM |
| CC(O)(c1cccc(C(F)(F)F)c1)c1ccc(-c2nc([C@@H]3CC[C@H]4CCC(=O)N4C3)n3c(F)cnc(N)c23)c(F)c1 (stereo partly drawn) [Example 183, (6R,8aS)-6-[8-amino-5-fluoro-1-(2-fluoro-4-{1-hydroxy-1-[3-(trifluoromethyl)phenyl]ethyl}phenyl)imidazo [1,5-a]pyrazin-3-yl]hexahydroindolizin-3(2H)-one] | 324 nM | 561 nM | – |
| C[C@@](O)(c1ccc(-c2nc([C@@H]3CC[C@H]4C(C(F)(F)F)CC(=O)N4C3)n3ccnc(N)c23)cc1)c1cccc(C(F)F)c1 (stereo partly drawn) [Example 184, (1R,6R,8aS)-6-[8-amino-1-(4-{(1R)-1-[3-(difluoromethyl)phenyl]-1-hydroxyethyl}phenyl)imidazo[1,5-a]pyrazin-3-yl]-1-(trifluoromethyl) hexahydroindolizin-3(2H)-one] | 1.4 nM | 2660 nM | – |
| CC(O)(c1cccc(C(F)(F)F)c1)c1ccc(-c2nc([C@@H]3CC[C@H]4CCC(=O)N4C3)n3c(F)cnc(N)c23)c(F)c1 (stereo partly drawn) [Example 185, (6R,8aS)-6-[8-amino-5-fluoro-1-(2-fluoro-4-{1-hydroxy-1-[3-(trifluoromethyl)phenyl]ethyl}phenyl)imidazo [1,5-a]pyrazin-3-yl]hexahydroindolizin-3(2H)-one] | 5 nM | 2390 nM | – |
| CCOc1cc([C@@](C)(O)c2cccc(C(F)(F)F)c2)ccc1-c1nc([C@@H]2CC[C@@H]3N(C2)C(=O)CC3(C)C)n2ccnc(N)c12 [Example 186, (6R,8aS)-6-[8-amino-1-(2-ethoxy-4-{(1S)-1-hydroxy-1-[3-(trifluoromethyl)phenyl]ethyl}phenyl)imidazo [1,5-a]pyrazin-3-yl]-1,1-dimethylhexahydroindolizin-3(2H)-one] | 1.3 nM | – | 3080 nM |
| CC1(C)OC(=O)N2C[C@H](c3nc(-c4ccc([C@@](C)(O)c5cccc(C(F)F)c5)cc4)c4c(N)nccn34)OC[C@H]21 [Example 187, (6R,8aS)-6-[8-amino-1-(4-{(1R)-1-[3-(difluoromethyl)phenyl]-1-hydroxyethyl}phenyl)imidazo[1,5-a]pyrazin-3-yl]-1,1-dimethyltetrahydro-1H-[1,3]oxazolo[4.3-c][1,4]oxazin-3-one] | 2.8 nM | – | 2640 nM |

— patent US10214546B2, “Btk inhibitors” (MERCK SHARP & DOHME CORP., priority 2014, dated 2019)
